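Growth conditions: 96-well plates. Treatment: test compound, 48 hours, 5 concentrations. Analysis: linear interpolation between bracketing concentrations; unreached endpoints set to highest concentration. GI50: concentration for 50% inhibition of growth.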 Calls of active or inactive are those of the source. No stated cut-off is given here; in the data, active = GI50 up to about 1.1 µM and inactive = higher.
Key:
Assay in all cases: growth of human tumour cells (NCI), 48 h
CAKI-1 = tested on: CAKI-1
COLO 205 = tested on: COLO 205
DU-145 = tested on: DU-145
HCT-116 = tested on: HCT-116
HL-60 = tested on: HL-60
HOP-62 = tested on: HOP-62
KM12 = tested on: KM12
LOX IMVI = tested on: LOX IMVI
MCF7 = tested on: MCF7
MDA-MB-231 = tested on: MDA-MB-231
MDA-N = tested on: MDA-N
NCI-H23 = tested on: NCI-H23
OVCAR-4 = tested on: OVCAR-4
RPMI-8226 = tested on: RPMI-8226
RXF 393 = tested on: RXF 393
SF-295 = tested on: SF-295
SK-MEL-5 = tested on: SK-MEL-5
SNB-19 = tested on: SNB-19
T47D = tested on: T47D
UO-31 = tested on: UO-31

Row | SMILES | GI50 (CAKI-1) | GI50 (COLO 205) | GI50 (DU-145) | GI50 (HCT-116) | GI50 (HL-60) | GI50 (HOP-62) | GI50 (KM12) | GI50 (LOX IMVI) | GI50 (MCF7) | GI50 (MDA-MB-231) | GI50 (MDA-N) | GI50 (NCI-H23) | GI50 (OVCAR-4) | GI50 (RPMI-8226) | GI50 (RXF 393) | GI50 (SF-295) | GI50 (SK-MEL-5) | GI50 (SNB-19) | GI50 (T47D) | GI50 (UO-31)
1 | O=C(c1ccc(F)cc1)c1cccc(C(=O)c2ccc(F)cc2)n1 | 28 µM (inactive) | > 100 µM (inactive) | > 100 µM (inactive) | 22.9 µM (inactive) | > 100 µM (inactive) | 20.1 µM (inactive) | > 100 µM (inactive) | 60.7 µM (inactive) | > 100 µM (inactive) | 38.6 µM (inactive) | > 100 µM (inactive) | 20.2 µM (inactive) | 71.6 µM (inactive) | > 100 µM (inactive) | 5.56 µM (inactive) | 3.4 µM (inactive) | 51.8 µM (inactive) | 25.2 µM (inactive) | 34.4 µM (inactive) | 45.3 µM (inactive)
2 | COC(=O)C[C@](O)(CCCC(C)(C)O)C(=O)O[C@@H]1C(OC)=C[C@]23CCCN2CCc2cc4c(cc2[C@H]13)OCO4 [OMACETAXINE MEPESUCCINATE] | 0.203 µM (active) | 0.218 µM (active) | 0.741 µM (active) |  | 0.0325 µM (active) | 0.0597 µM (active) | 0.142 µM (active) | 0.0444 µM (active) | 0.015 µM (active) | 1.7 µM (inactive) | 2.42 µM (inactive) | 0.0528 µM (active) | 0.342 µM (active) | 0.0388 µM (active) | 0.107 µM (active) | 0.152 µM (active) | 0.117 µM (active) | 0.0706 µM (active) | 0.383 µM (active) | 0.546 µM (active)
3 | COC(=O)C1=CO[C@@H](OC2OC(CO)C(O)C(O)C2O)[C@H]2[C@@H](C)[C@@H](O)[C@@H](O)[C@@H]12 (some centres undefined) | > 100 µM (inactive) | > 100 µM (inactive) | > 100 µM (inactive) | > 100 µM (inactive) | > 100 µM (inactive) | > 100 µM (inactive) | > 100 µM (inactive) | > 100 µM (inactive) | > 100 µM (inactive) | > 100 µM (inactive) | > 100 µM (inactive) | > 100 µM (inactive) | > 100 µM (inactive) | > 100 µM (inactive) | > 100 µM (inactive) | > 100 µM (inactive) | > 100 µM (inactive) |  | > 100 µM (inactive) | > 100 µM (inactive)
4 | Cc1ccc(S(=O)(=O)C2=C(C(C)C)N=NC2(C)C)cc1 | 26.7 µM (inactive) |  | 87.1 µM (inactive) | 65.5 µM (inactive) | > 100 µM (inactive) | > 100 µM (inactive) | > 100 µM (inactive) | 88.9 µM (inactive) | 62.7 µM (inactive) | > 100 µM (inactive) | 80 µM (inactive) | 48.8 µM (inactive) | 72.9 µM (inactive) | 9.14 µM (inactive) | 66.5 µM (inactive) | 71.8 µM (inactive) | 79.8 µM (inactive) | > 100 µM (inactive) | 60.1 µM (inactive) | > 100 µM (inactive)
5 | CC(=N/NC(=S)N1CCCCCC1)/C(C)=N\NC(=S)N1CCCCCC1 | 4.91 µM (inactive) | 5.43 µM (inactive) | 3.21 µM (inactive) | 5.08 µM (inactive) |  | 4.98 µM (inactive) | 4.59 µM (inactive) | > 10 µM (inactive) | 4.7 µM (inactive) | 7.98 µM (inactive) | 6.55 µM (inactive) | 4.83 µM (inactive) | 1.79 µM (inactive) | 5.66 µM (inactive) | 3.77 µM (inactive) | 4.93 µM (inactive) | 4.86 µM (inactive) | 6.18 µM (inactive) | 1.75 µM (inactive) | 3.75 µM (inactive)
6 | Cc1ccccc1C(=O)C#Cc1cn(C2CC(O)C(CO)O2)c(=O)[nH]c1=O (centres undefined) | > 100 µM (inactive) | > 100 µM (inactive) | > 100 µM (inactive) | > 100 µM (inactive) | > 100 µM (inactive) | > 100 µM (inactive) | > 100 µM (inactive) |  | > 100 µM (inactive) | > 100 µM (inactive) | > 100 µM (inactive) | > 100 µM (inactive) | > 100 µM (inactive) | > 100 µM (inactive) | > 100 µM (inactive) | > 100 µM (inactive) | > 100 µM (inactive) | > 100 µM (inactive) | 68.2 µM (inactive) | > 100 µM (inactive)
7 | C(=NCCN1CCOCC1)=NC1CCCCC1 | > 100 µM (inactive) | > 100 µM (inactive) | > 100 µM (inactive) | > 100 µM (inactive) |  | > 100 µM (inactive) | > 100 µM (inactive) | > 100 µM (inactive) | > 100 µM (inactive) | > 100 µM (inactive) | > 100 µM (inactive) | > 100 µM (inactive) | > 100 µM (inactive) | > 100 µM (inactive) | > 100 µM (inactive) | > 100 µM (inactive) | > 100 µM (inactive) | > 100 µM (inactive) | > 100 µM (inactive) | > 100 µM (inactive)
8 | Nc1n[n+]([O-])c2ccc(Cl)cc2[n+]1[O-] | 21.9 µM (inactive) | 12.8 µM (inactive) | 46.1 µM (inactive) | 18.5 µM (inactive) | 7.23 µM (inactive) | 11 µM (inactive) | 16.1 µM (inactive) | 25.1 µM (inactive) | 16.9 µM (inactive) | 32 µM (inactive) | 23.7 µM (inactive) | 20.1 µM (inactive) |  | 14.7 µM (inactive) | 18.4 µM (inactive) | 23 µM (inactive) | 4.07 µM (inactive) | 34.5 µM (inactive) | 24.7 µM (inactive) | 27.6 µM (inactive)
9 | COc1ccccc1N1C(=O)CC(=O)N(C(=O)CCCCCCCCC(=O)N2C(=O)CC(=O)N(c3ccccc3OC)C2=S)C1=S | > 100 µM (inactive) | > 100 µM (inactive) | > 100 µM (inactive) | 56.9 µM (inactive) |  | > 100 µM (inactive) | 53.8 µM (inactive) | 95.3 µM (inactive) | 44.2 µM (inactive) | 43.7 µM (inactive) | 67.3 µM (inactive) | 53.6 µM (inactive) | 73.1 µM (inactive) | 35.7 µM (inactive) | 99.3 µM (inactive) | > 100 µM (inactive) | 52 µM (inactive) | 74.1 µM (inactive) | 87.3 µM (inactive) | 45.9 µM (inactive)
10 | CC1=NCCN=C(C)C1/N=N/c1ccc2[nH]c(C)nc2c1 | 18.5 µM (inactive) | 15.2 µM (inactive) | 16.1 µM (inactive) | 13.2 µM (inactive) | 3.54 µM (inactive) | 22.1 µM (inactive) | 11.7 µM (inactive) | 20.7 µM (inactive) | 5.75 µM (inactive) | 12.7 µM (inactive) | 10.2 µM (inactive) | 13.8 µM (inactive) | 12.4 µM (inactive) | 3.11 µM (inactive) | 16.3 µM (inactive) | 13.2 µM (inactive) |  | 10 µM (inactive) | 12.7 µM (inactive) | 
11 | CN1C(CC(O)c2ccccc2)CCCC1CC(O)(c1ccccc1)c1ccccc1 (centres undefined) | 75.2 µM (inactive) | 16.4 µM (inactive) | 20.8 µM (inactive) | 14.9 µM (inactive) | 17.3 µM (inactive) | 14.3 µM (inactive) | 18.5 µM (inactive) | 20.3 µM (inactive) | 20.9 µM (inactive) | 22.6 µM (inactive) | 18.5 µM (inactive) | 16.7 µM (inactive) |  | 17.1 µM (inactive) | 14.9 µM (inactive) | 16.9 µM (inactive) | 16.6 µM (inactive) | 17.1 µM (inactive) | 21 µM (inactive) | 8.36 µM (inactive)
12 | N#CCCN(CCC#N)c1ccc(/C=C2\N=C(c3ccccc3)N(c3ccccc3)C2=O)cc1 |  | 9.38 µM (inactive) | > 100 µM (inactive) | 5.93 µM (inactive) | 3.07 µM (inactive) | > 100 µM (inactive) | > 100 µM (inactive) | 7.21 µM (inactive) | > 100 µM (inactive) | > 100 µM (inactive) | > 100 µM (inactive) |  | > 100 µM (inactive) | 8.36 µM (inactive) | > 100 µM (inactive) | > 100 µM (inactive) | 4.38 µM (inactive) | > 100 µM (inactive) | > 100 µM (inactive) | > 100 µM (inactive)
13 | CCOC(=O)CCC(NC(=O)c1ccc(NCc2ccc3nc(OC)c(OC)nc3c2)c2ccccc12)C(=O)OCC (centres undefined) | > 100 µM (inactive) | > 100 µM (inactive) | > 100 µM (inactive) | > 100 µM (inactive) | 0.0836 µM (active) | 25.9 µM (inactive) | > 100 µM (inactive) | > 100 µM (inactive) | 84.9 µM (inactive) | 71.1 µM (inactive) | > 100 µM (inactive) | > 100 µM (inactive) | 43.1 µM (inactive) |  | 31 µM (inactive) | 36.2 µM (inactive) | 58.1 µM (inactive) | 76.2 µM (inactive) | > 100 µM (inactive) | > 100 µM (inactive)
14 | O=S1(=O)OCc2ccccc21 |  | > 100 µM (inactive) | > 100 µM (inactive) | 37.3 µM (inactive) | 59.3 µM (inactive) | 10.2 µM (inactive) | > 100 µM (inactive) |  | > 100 µM (inactive) | 20.8 µM (inactive) | > 100 µM (inactive) | > 100 µM (inactive) | 51.1 µM (inactive) | 61.1 µM (inactive) | > 100 µM (inactive) | > 100 µM (inactive) | > 100 µM (inactive) | > 100 µM (inactive) | > 100 µM (inactive) | > 100 µM (inactive)

Source: ChEMBL document CHEMBL1201862, “PubChem BioAssay data set” (2004)
